The record followed here is patent US11667651B2, “Aminopyridine derivatives as phosphatidylinositol phosphate kinase inhibitors” (HiberCell, Inc., priority 2017, dated 2023).

Molecules are shown by their SMILES.

Assay type in all cases: biochemical
The target of assay [1] is T1, PIP4K2B (Homo sapiens, UniProt P78356).
T1 construct: made in house; host or cells: E. coli
T1 sequence (P78356 1-416): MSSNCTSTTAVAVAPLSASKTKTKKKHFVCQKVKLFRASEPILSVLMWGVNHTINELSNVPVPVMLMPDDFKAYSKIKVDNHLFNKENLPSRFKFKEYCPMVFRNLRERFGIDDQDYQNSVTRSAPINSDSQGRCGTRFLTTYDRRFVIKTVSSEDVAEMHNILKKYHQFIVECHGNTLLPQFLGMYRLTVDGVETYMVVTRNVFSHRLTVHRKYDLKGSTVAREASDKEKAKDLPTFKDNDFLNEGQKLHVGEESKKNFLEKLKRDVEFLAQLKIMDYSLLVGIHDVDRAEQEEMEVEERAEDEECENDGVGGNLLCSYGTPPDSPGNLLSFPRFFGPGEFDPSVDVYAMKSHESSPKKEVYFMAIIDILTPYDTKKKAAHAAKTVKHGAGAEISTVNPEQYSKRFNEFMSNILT
The experiment in a line: Trans-FI P kinase assay PIP4K2B (Table 4). The note with it: compounds listed under IC50 bins; read-out: Trans-FI P kinase assays: PIP4K2B IC50. The essentials:
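Transcreener FI detection (Ex 584/Em 623) of GDP, converted via calibration curve, gives IC50 from residual activity versus log concentration (highest 4.8 μM). Reaction: 80 μM PI5P plus DOPE carrier, 100 μM GTP, 5 nM GST-tagged enzyme, pH 7.3 HEPES with MgCl2 and 5% DMSO, 2 h after 1 h enzyme-compound preincubation at 27° C.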

Assay [2] concerns the target T2, PIP4K2A (Homo sapiens, UniProt P48426).
T2 sequence (P48426 1-406): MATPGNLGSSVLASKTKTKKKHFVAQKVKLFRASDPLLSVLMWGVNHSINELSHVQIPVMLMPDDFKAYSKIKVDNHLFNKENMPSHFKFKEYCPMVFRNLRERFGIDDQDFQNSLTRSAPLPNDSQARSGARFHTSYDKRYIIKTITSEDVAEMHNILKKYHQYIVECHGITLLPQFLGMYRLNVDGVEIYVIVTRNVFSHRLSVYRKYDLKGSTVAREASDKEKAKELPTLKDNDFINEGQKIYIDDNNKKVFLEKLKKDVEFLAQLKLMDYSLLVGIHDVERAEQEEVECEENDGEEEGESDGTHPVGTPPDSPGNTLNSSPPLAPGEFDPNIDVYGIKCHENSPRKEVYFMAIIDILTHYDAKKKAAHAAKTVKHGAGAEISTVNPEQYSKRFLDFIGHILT
The experiment in a line: ADP-glo kinase assay PIP4K 2A (Table 3). Also noted: made in house; host or cells: E. coli. The note with it: compounds listed under IC50 bins. The essentials:
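ADP-Glo luminescence detected ADP after 1 h RT reaction started by ATP (60 μM solution) on full-length PIP4K2A (4 nM in mix) and PI(5)P diC8 (100 μM in mix), preceded by 15 min enzyme-compound preincubation in MOPS pH 7.2/25 mM MgCl2. Percent inhibition versus DMSO over 10 concentrations fitted for IC50.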
On the technique in general: ADP-Glo first removes unused ATP, then detects ADP through luciferase.

Assay [3] concerns the target T2, PIP4K2A. The experiment in a line: Kinase Assay PIP4K2 A (Table 2). Also noted: 4 nM PIP4K2A (full length protein, SignalChem); purchased SignalChem. The settings on record: compounds listed under IC50 bins. The essentials:
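ADP-Glo luminescent read-out after 1 h room-temperature kinase reaction, started with 60 μM ATP solution following 15 min compound pre-incubation. Enzyme/substrate mix: 4 nM full-length PIP4K2A plus 100 μM PI(5)P diC8; buffer MOPS pH 7.2 with 25 mM MgCl2 and Tween 20. IC50 from 10-point, 3-fold titrations normalized to DMSO.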

As usually defined, the IC50 is the concentration that gives 50% inhibition. In the case of `CN(C)C(=O)c1ccc(-c2ccc(Nc3cncc(N4CCN(Cc5cccc(NC(=O)CCc6cccc(N)c6)c5)C4=O)c3)nc2)cc1` [Example 224, 4-(6-((5-(3-(3-(3-(3-aminophenyl)propanamido)benzyl)-2-oxoimidazolidin-1-yl)pyridin-3-yl)amino)pyridin-3-yl)-N,N-dimethylbenzamide], the half-inhibitory concentration (IC50) in assay [1] was 10 to 100 nM; in assay [2], 1 to 10 nM; in assay [3], 1 to 10 nM.
Turning to `CN(C)C/C=C/C(=O)Nc1cccc(CCC(=O)Nc2cccc(CN3CCN(c4cncc(Nc5ccc(-c6ccc(C(=O)N(C)C)cc6)cn5)c4)C3=O)c2)c1` [Example 225, (E)-4-(6-((5-(3-(3-(3-(3-(4-(dimethylamino)but-2-enamido)phenyl)propanamido)benzyl)-2-oxoimidazolidin-1-yl)pyridin-3-yl)amino)pyridin-3-yl)-N,N-dimethylbenzamide], the IC50 is 10 to 100 nM in assay [1], 10 to 100 nM in assay [2] and 1 to 10 nM in assay [3].
Regarding `CN(C)C/C=C/C(=O)NCC(=O)Nc1cccc(CN2CCN(c3cncc(Nc4ccc(-c5ccc(C(=O)N(C)C)cc5)cn4)c3)C2=O)c1` [Example 227, (E)-4-(6-((5-(3-(3-(2-(4-(dimethylamino)but-2-enamido)acetamido)benzyl)-2-oxoimidazolidin-1-yl)pyridin-3-yl)amino)pyridin-3-yl)-N,N-dimethylbenzamide], the IC50 was 10 to 100 nM in assay [1], 1 to 10 nM in assay [2] and at most 1 nM in assay [3].
The like results for `CN(C)C(=O)c1ccc(-c2ccc(Nc3cncc(N4CCN(Cc5ccc(NC(=O)CN)cc5)C4=O)c3)nc2)cc1` [Example 228, 4-(6-((5-(3-(4-(2-aminoacetamido)benzyl)-2-oxoimidazolidin-1-yl)pyridin-3-yl)amino)pyridin-3-yl)-N,N-dimethylbenzamide] were, in that order, above 1000 nM, above 1000 nM and above 1000 nM.
The like results for `CN(C)C/C=C/C(=O)NCC(=O)Nc1ccc(CN2CCN(c3cncc(Nc4ccc(-c5ccc(C(=O)N(C)C)cc5)cn4)c3)C2=O)cc1` [Example 229, (E)-4-(6-((5-(3-(4-(2-(4-(dimethylamino)but-2-enamido)acetamido)benzyl)-2-oxoimidazolidin-1-yl)pyridin-3-yl)amino)pyridin-3-yl)-N,N-dimethylbenzamide] were, in that order, above 1000 nM, above 1000 nM and above 1000 nM.
With `CN(C)C(=O)c1ccc(-c2ccc(Nc3cncc(N4CCN(Cc5ccc(NC(=O)CCc6cccc(N)c6)cc5)C4=O)c3)nc2)cc1` [Example 230, 4-(6-((5-(3-(4-(3-(3-aminophenyl)propanamido)benzyl)-2-oxoimidazolidin-1-yl)pyridin-3-yl)amino)pyridin-3-yl)-N,N-dimethylbenzamide], the values for the IC50 in assay [1], in assay [2] and in assay [3] were 10 to 100 nM, 1 to 10 nM and 1 to 10 nM, respectively.
In the case of `CN(C)C/C=C/C(=O)Nc1cccc(CCC(=O)Nc2ccc(CN3CCN(c4cncc(Nc5ccc(-c6ccc(C(=O)N(C)C)cc6)cn5)c4)C3=O)cc2)c1` [Example 231, (E)-4-(6-((5-(3-(4-(3-(3-(4-(dimethylamino)-but-2-enamido)phenyl)propanamido)benzyl)-2-oxoimidazolidin-1-yl)pyridin-3-yl)amino)pyridin-3-yl)-N,N-dimethylbenzamide], the IC50 was in the range of 10 to 100 nM in assay [1], 1 to 10 nM in assay [2] and 1 to 10 nM in assay [3].
For `CN(C)C(=O)c1ccc(-c2ccc(Nc3cncc(NC(=O)c4cccc5[nH]cnc45)c3)nc2)cc1` [Example 232, N-(5-((5-(4-(dimethylcarbamoyl)phenyl)pyridin-2-yl)amino)pyridin-3-yl)-1H-benzo[d]imidazole-7-carboxamide], the IC50 is 10 to 100 nM in assay [1], 10 to 100 nM in assay [2] and 1 to 10 nM in assay [3].
With `O=C1CCCN1c1ccc(-c2ccc(Nc3cnc4c(c3)N(C(=O)C3(O)CC3)CCO4)nc2)cc1` [Example 233, 1-(4-(6-((1-(1-hydroxycyclopropane-1-carbonyl)-2,3-dihydro-1H-pyrido[2,3-b][1,4]oxazin-7-yl)amino)pyridin-3-yl)phenyl)pyrrolidin-2-one], the IC50 in assay [1] fell in the range of 10 to 100 nM; in assay [2] it was 1 to 10 nM; in assay [3] it was 1 to 10 nM.
For `CC(O)C(=O)N1CCOc2ncc(Nc3ccc(-c4ccc(N5CCCC5=O)cc4)cn3)cc21` (stereo not drawn) [Example 234, 1-(4-(6-((1-(2-hydroxypropanoyl)-2,3-dihydro-1H-pyrido[2,3-b][1,4]oxazin-7-yl)amino)pyridin-3-yl)phenyl)pyrrolidin-2-one], the half-maximal inhibitory concentration (IC50) in assay [1] lay in the range of 10 to 100 nM; in assay [2], 1 to 10 nM; in assay [3], 1 to 10 nM.
For `O=C1CCCN1c1ccc(-c2ccc(Nc3cnc4c(c3)N(C(=O)CO)CCO4)nc2)cc1` [Example 235, 1-(4-(6-((1-(2-hydroxyacetyl)-2,3-dihydro-1H-pyrido[2,3-b][1,4]oxazin-7-yl)amino)pyridin-3-yl)phenyl)pyrrolidin-2-one], the results for the IC50 in assay [1], in assay [2] and in assay [3] were 10 to 100 nM, 10 to 100 nM and 1 to 10 nM, respectively.
For the compound `O=C1C[C@@H](O)CN1c1ccc(-c2ccc(Nc3cnc4c(c3)N3C(=O)CC[C@H]3CO4)nc2)cc1` [Example 236, (S)-2-((5-(4-((R)-4-hydroxy-2-oxopyrrolidin-1-yl)phenyl)pyridin-2-yl)amino)-6,6a,7,8-tetrahydro-9H-pyrido[2,3-b]pyrrolo[1,2-d][1,4]oxazin-9-one], the IC50 in assay [1] lay within 10 to 100 nM; in assay [2], 100 to 1000 nM; in assay [3], 100 to 1000 nM.
For the compound `O=C1C[C@H](O)CN1c1ccc(-c2ccc(Nc3cnc4c(c3)N3C(=O)CC[C@H]3CO4)nc2)cc1` [Example 237, (S)-2-((5-(4-((S)-4-hydroxy-2-oxopyrrolidin-1-yl)phenyl)pyridin-2-yl)amino)-6,6a,7,8-tetrahydro-9H-pyrido[2,3-b]pyrrolo[1,2-d][1,4]oxazin-9-one], the figures for the IC50 in assay [1], in assay [2] and in assay [3] were above 1000 nM, 100 to 1000 nM and 100 to 1000 nM, respectively.
With `CC(C)(O)C(=O)N1CCOc2ncc(Nc3ccc(-c4ccc(N5CCCC5=O)cc4)cn3)cc21` [Example 238, 1-(4-(6-((1-(2-hydroxy-2-methylpropanoyl)-2,3-dihydro-1H-pyrido[2,3-b][1,4]oxazin-7-yl)amino)pyridin-3-yl)phenyl)pyrrolidin-2-one], the figures for the IC50 in assay [1], in assay [2] and in assay [3] were 10 to 100 nM, 1 to 10 nM and 1 to 10 nM, respectively.
`COc1cncc(C(=O)Nc2cncc(Nc3ccc(-c4ccc(N5CCCC5=O)cc4)cn3)c2)c1` [Example 239, 5-methoxy-N-(5-((5-(4-(2-oxopyrrolidin-1-yl)phenyl)pyridin-2-yl)amino)pyridin-3-yl)nicotinamide]: the IC50 in assay [1] lay in the range of 10 to 100 nM; in assay [2], 10 to 100 nM; in assay [3], 1 to 10 nM.
Consider `O=C(Nc1cncc(Nc2ccc(-c3ccc(N4CCCC4=O)cc3)cn2)c1)c1ccc(=O)[nH]c1` [Example 240, 6-oxo-N-(5-((5-(4-(2-oxopyrrolidin-1-yl)phenyl)pyridin-2-yl)amino)pyridin-3-yl)-1,6-dihydropyridine-3-carboxamide], for which the IC50 in assay [1] lay in the range of 10 to 100 nM; in assay [2], 100 to 1000 nM; in assay [3] it was 10 to 100 nM.
Consider `COCCC(=O)N1CCN(c2cncc(Nc3ccc(-c4ccc(N5CCCC5=O)cc4)cn3)c2)CC1` [Example 241, 1-(4-(6-((5-(4-(3-methoxypropanoyl)piperazin-1-yl)pyridin-3-yl)amino)pyridin-3-yl)phenyl)pyrrolidin-2-one], for which the figures for the IC50 in assay [1], in assay [2] and in assay [3] were 10 to 100 nM, 100 to 1000 nM and 10 to 100 nM, respectively.
